The values that follow are results of earlier work, collected in patent publication US20020055536A1, “System and method for structure-based drug design that includes accurate prediction of binding free energy” (priority 1996, published 2002).

In series [1] the test system is purine nucleoside phosphorylase. The conditions noted are these: for Phosphate sensitivity: change of binding constant upon increase of phosphate to 50 mM; for IC50: 1 mM phosphate, Ki or IC50 not distinguished.
In series [2] the target is T1, HIV-1 protease (Human immunodeficiency virus type 1 group M subtype B, UniProt P04585).
T1 construct: The following HIV-1 protease ligands were tested by the method of the present invention

For the compound `Nc1nc(O)c2ncn(COCCOP(=O)(O)OP(=O)(O)O)c2n1` [acyclovirDP], the Phosphate sensitivity entry in series [1] is on record as “high (The highly sensitive molecules are affected in some instances by a factor of 140)”. The Ki is the equilibrium dissociation constant of an inhibitor or competing ligand from its target. Turning to `CC(C)C(O)c1cnc(C(Cc2ccccc2)CC(O)C(Cc2ccccc2)NC(=O)OC(C)(C)C)[nH]1` [B Boc iPr(S)], in series [2], the Ki is 2.7 µM. Take `CC(C)(C)OC(=O)NC(Cc1ccccc1)C(O)CC(Cc1ccccc1)c1ncc(C=O)[nH]1` (centres unmarked) [A Boc H]: the Ki in series [2] is 3.5 µM.

A word on the IC50: it is the concentration at which inhibition is half-maximal. Regarding `Nc1nc2c(ncn2[C@@H]2O[C@H](COP(=O)(O)OP(=O)(O)OP(=O)(O)O)[C@@H](O)[C@H]2O)c(=O)[nH]1` [GTP], in series [1], the IC50 is 490 µM and the Phosphate sensitivity result is “low (those whose binding constant changes by a factor of 15 or less upon increase of the concentration of phosphate to 50 mM)”.

On to `CC(C)C(NC(=O)C(Cc1ccccc1)CC(O)C(Cc1ccccc1)NC(=O)OC(C)(C)C)c1ncc[nH]1` (centres unmarked) [D CH], for which the inhibitory constant (Ki) in series [2] is 0.018 µM.

On to `Nc1nc2c(ncn2COCCO)c(=O)[nH]1` [acyclovir], for which, in series [1], the IC50 was 200 µM and the Phosphate sensitivity entry is listed as “low (those whose binding constant changes by a factor of 15 or less upon increase of the concentration of phosphate to 50 mM)”. For the compound `CC(O)c1cnc(C(Cc2ccccc2)CC(O)C(Cc2ccccc2)NC(=O)OC(C)(C)C)[nH]1` [B Boc Me(R)], the Ki in series [2] is 13.3 µM. Take `CC(C)C(NC(=O)C(Cc1ccccc1)CC(O)C(Cc1ccccc1)NC(=O)OC(C)(C)C)c1nnc[nH]1` (centres unmarked) [D N]: in series [2], the Ki was 0.0042 µM.

For the compound `Nc1nc2c(ncn2[C@@H]2O[C@H](COP(=O)(O)O)[C@@H](O)[C@H]2O)c(=O)[nH]1` [GMP], in series [1], the IC50 is 530 µM and the Phosphate sensitivity result was “low (those whose binding constant changes by a factor of 15 or less upon increase of the concentration of phosphate to 50 mM)”. As for `Nc1nc2c(ncn2[C@H]2C[C@H](O)[C@@H](COP(=O)(O)O)O2)c(=O)[nH]1` [dGMP], in series [1], the IC50 was 300 µM and the Phosphate sensitivity result is on record as “low (those whose binding constant changes by a factor of 15 or less upon increase of the concentration of phosphate to 50 mM)”. For the compound `CCC(=O)c1cnc(C(Cc2ccccc2)CC(O)C(Cc2ccccc2)NC(=O)OC(C)(C)C)[nH]1` (centres unmarked) [A Boc Et], the Ki in series [2] was 0.092 µM. For the compound `Nc1nc2c(ncn2[C@@H]2O[C@H](COP(=O)(O)OP(=O)(O)O)[C@@H](O)[C@H]2O)c(=O)[nH]1` [GDP], in series [1], the IC50 was 360 µM and the Phosphate sensitivity result is recorded as “low (those whose binding constant changes by a factor of 15 or less upon increase of the concentration of phosphate to 50 mM)”. `CC(C)C(O)c1cnc(C(Cc2ccccc2)CC(O)C(Cc2ccccc2)NC(=O)OC(C)(C)C)[nH]1` [B Boc i-Pr(R)]: the Ki in series [2] is 2.7 µM.

For the compound `CC(O)c1cnc(C(Cc2ccccc2)CC(O)C(Cc2ccccc2)NC(=O)OC(C)(C)C)[nH]1` [B Boc Me(S)], the Ki in series [2] was 13.3 µM. Turning to `CCCC(=O)c1cnc(C(Cc2ccccc2)CC(O)C(Cc2ccccc2)NC(=O)OC(C)(C)C)[nH]1` (centres unmarked) [A Boc n-Pr], the Ki in series [2] was 0.15 µM. Take `C=CC(C)(C)C(=O)c1cnc(C(Cc2ccccc2)CC(O)C(Cc2ccccc2)NC(=O)OC(C)(C)C)[nH]1` (centres unmarked) [A Boc CMe2CHCH2]: the Ki in series [2] is 0.27 µM. As for `CC(C)C(=O)c1cnc(C(Cc2ccccc2)CC(O)C(Cc2ccccc2)NC(=O)OC(C)(C)C)[nH]1` (centres unmarked) [A Boc i-Pr], the inhibitory constant (Ki) in series [2] is 0.083 µM. Turning to `Nc1nc2c(ncn2[C@H]2C[C@H](O)[C@@H](COP(=O)(O)OP(=O)(O)OP(=O)(O)O)O2)c(=O)[nH]1` [dGTP], in series [1], the IC50 is 32 µM and the Phosphate sensitivity result is “high (The highly sensitive molecules are affected in some instances by a factor of 140)”.

In the case of `CC(=O)c1cnc(C(Cc2ccccc2)CC(O)C(Cc2ccccc2)NC(=O)OC(C)(C)C)[nH]1` (centres unmarked) [A Boc Me], the Ki in series [2] was 0.37 µM. In the case of `Nc1nc2c(ncn2COCCOP(=O)(O)OP(=O)(O)OP(=O)(O)O)c(=O)[nH]1` [acyclovirTP], in series [1], the IC50 was 0.31 µM and the Phosphate sensitivity entry is “high (The highly sensitive molecules are affected in some instances by a factor of 140)”. `Nc1nc2c(ncn2COCCOP(=O)(O)O)c(=O)[nH]1` [acyclovirMP]: in series [1], the IC50 was 6.6 µM and the Phosphate sensitivity entry is on record as “low (those whose binding constant changes by a factor of 15 or less upon increase of the concentration of phosphate to 50 mM)”.
